Data on three compounds can be found in patent US20090035385A1, “COMPOSITIONS INCLUDING IRON” (DRUGTECH CORPORATION, priority 2004, published 2009).

The conditions of assay [1]: daily administration, 50 mg of elemental iron; based on generally accepted iron absorption rates.
Assay [2] concerns gastrointestinal iron absorption. The following applies: cited from earlier work.
[3] abbreviates: intravenous administration of the promoter.
Where [4] appears, read: oral administration of the promoter.

Where two headings read alike, the source gives them in different places.

Take ferrous sulfate: the “time required to supply 450 mg of iron for RBC regeneration and 300 mg of iron to replenish iron stores” value in assay [1] is given as “approximately 9 months”.
Consider `O=C(O)CCC(=O)O` [Succinic acid, succinic acid], for which the “effect on gastrointestinal iron absorption” value in assay [2] (setting [3]) and in assay [2] (setting [4]) was “enhance gastrointestinal iron absorption” throughout.
For `O=C1O[C@H]([C@@H](O)CO)C(O)=C1O` [Ascorbic acid, ascorbic acid], the “effect on gastrointestinal iron absorption” value was “not increased” in assay [2] (setting [3]) and “enhance gastrointestinal iron absorption” in assay [2] (setting [4]).
